According to patent US20130252890A1, “6,7-DIHYDRO-5H-BENZO[7]ANNULENE DERIVATIVES, PROCESS FOR PREPARATION THEREOF, PHARMACEUTICAL PREPARATIONS COMPRISING THEM, AND THE USE THEREOF FOR PRODUCTION OF MEDICAMENTS” (BAYER INTELLECTUAL PROPERTY GMBH, priority 2010, published 2013):
Entries after “also recorded” stand apart in the source; their conditions may differ.

Key:
uterus = assay: Oestrogenic action - uterus growth test in the infantile rat; format: in vivo; conditions: sc, 72 h, s.c. 3 days, maximum at dose 0.03 mg/kg, relative to E2 0.3 μg/animal, read-out: maximum uterotropic action (% estradiol action) in the dose range from 0.03 to 3 mg/kg
Description: Both the uterus and the vagina show a weight increase that is dependent on oestrogenic efficacy, in infantile animals when they are treated with a substance with oestrogenic action. In the uterus, under oestrogenic action there is also proliferation and increase in height of the luminal epithelium.
Immature, intact rats (n=5-6 animals/group; body weight 40-50 g) receive the substance s.c. for 3 days (d1-d3). On day 4 (d4) the animals are killed with CO2. The uteri are removed and weighed. For histological assessment, a piece of uterus, preferably a uterine horn, is fixed in formaldehyde and embedded in paraffin. The stimulation of the organ weights (relative to mg/100 g body weight) and the height of the epithelium are shown as percentage stimulation in comparison with the reference compound 17β-estradiol (E2). (Substitution dose of E2 0.3 μg/animal).

[1] = tested on: trabecular bone density and uterus weight; format: in vivo, rat; conditions: adult ovariectomized rats, 56 days; compound 44 oral 1-10 mg/kg, effect already beginning with 1 mg/kg
Description: 3-months-old female rats are ovariectomized and immediately after the operation they are treated with the test compound once daily for 56 days. Application is oral in peanut oil/ethanol. The animals are killed on the day after the last application and the tibia and the uteri are removed. The uteri are weighed, fixed and prepared for histological investigations. Bone density is determined ex vivo on prepared long bones by pQCT (peripheral quantitative computed tomography).
Ovariectomy leads to a decrease in density of the trabecular bone in the measured region. By treatment with a compound of general formula I according to the present invention (dosages of 1-10 mg/kg/day) the decline in bone density is prevented or inhibited. Bone density was measured on the proximal tibia.
The bone-protective action in adult ovariectomized female animals (rat) was investigated as described. […] The selected claimed pharmacological example compound 44 was applied orally at dosages from 1-10 mg/kg.

[2] = tested on: peripheral cholesterol level; assay: Hepatic oestrogenicity in the ovariectomized adult rat (plasma cholesterol); format: in vivo; conditions: ovariectomized adult rats, s.c. daily for 6 days; cholesterol day 0 vs day 8
Excerpt: Substances with oestrogenic action influence the synthesis of various plasma proteins, of coagulation factors and fibrinolytic factors in the liver. […] In the present investigations, lowering of the peripheral cholesterol level is used as a surrogate parameter for analysis of the hepatic oestrogenicity of the claimed pharmacological compounds. Adult ovariectomized rats were, after a pause of 6-10 days, treated daily for 6 days with the substances by subcutaneous application. The plasma cholesterol levels were determined and compared before and after the respective treatment.

O=C(c1ccc(OCCN2CCCCC2)cc1)c1c(-c2ccc(O)cc2)sc2cc(O)ccc12 [raloxifene, reference compound]
Emax at 0.03 mg/kg (uterus): 18%
bone-protective action (trabecular bone mass density, tibia) [1]: marked bone protective action
hepatic oestrogenicity: lowering of the peripheral cholesterol level [2]: hepatic oestrogenicity at all dosages tested; also recorded: marked lowering of the cholesterol level at all dosages
